For one experiment, the target named is human M2 receptor (Homo sapiens (Human), UniProt P08172). The experiment is described as follows: Radioligand (tritiated N-methylscopolamine) binding assay, M2. The following applies: CHO cell membranes expressing human M2; 1.5 nM tritiated N-methylscopolamine; 90 min, 37° C.; read-out: Ki against M2 receptor (Table 21, M2). In short, it runs like this:
(§1)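 Ki values come from displacement of 1.5 nM radioligand from membranes of receptor-expressing CHO cells, with filter-trapped radioactivity counted after rapid vacuum filtration. Twelve compound concentrations (10 μM to […]) were incubated for 90 min at 37 °C at pH 7.4.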

The next experiment has as its target human M4 receptor (Homo sapiens (Human), UniProt P08173). The experiment is described as follows: Radioligand (tritiated N-methylscopolamine) binding assay, M4. The following applies: Ki against the M4 receptor; membranes from CHO cells expressing human M4; tritiated N-methylscopolamine 1.5 nM; read-out: Ki. In short, it runs like this: as §1
The target of the next experiment is human M3 receptor (Homo sapiens (Human), UniProt P20309). The experiment is described as follows: Radioligand (tritiated N-methylscopolamine) binding assay, M3. Particulars: CHO cell membranes expressing human M3; 1.5 nM tritiated N-methylscopolamine; 90 min, 37° C.; read-out: Ki against M3 receptor (Table 21, M3). In a few lines: as §1
The target of the next experiment is human M1 receptor (Homo sapiens (Human), UniProt P11229). Nature of the experiment: Radioligand (tritiated N-methylscopolamine) binding assay, M1. The following applies: CHO cell membranes expressing human M1; 1.5 nM tritiated N-methylscopolamine; 90 min, 37° C.; read-out: Ki against M1 receptor (Table 21, M1). In short, it runs like this:
as §1

A further experiment concerns the target human M5 receptor (Homo sapiens (Human), UniProt P08912). Nature of the experiment: Radioligand (tritiated N-methylscopolamine) binding assay, M5. The following applies: CHO cell membranes expressing human M5; 1.5 nM tritiated N-methylscopolamine; 90 min, 37° C.; read-out: Ki against M5 receptor (Table 21, M5). In short, it runs like this: as §1

Molecules are shown by their SMILES.

Sequence of human M3 receptor (P20309 whole entry): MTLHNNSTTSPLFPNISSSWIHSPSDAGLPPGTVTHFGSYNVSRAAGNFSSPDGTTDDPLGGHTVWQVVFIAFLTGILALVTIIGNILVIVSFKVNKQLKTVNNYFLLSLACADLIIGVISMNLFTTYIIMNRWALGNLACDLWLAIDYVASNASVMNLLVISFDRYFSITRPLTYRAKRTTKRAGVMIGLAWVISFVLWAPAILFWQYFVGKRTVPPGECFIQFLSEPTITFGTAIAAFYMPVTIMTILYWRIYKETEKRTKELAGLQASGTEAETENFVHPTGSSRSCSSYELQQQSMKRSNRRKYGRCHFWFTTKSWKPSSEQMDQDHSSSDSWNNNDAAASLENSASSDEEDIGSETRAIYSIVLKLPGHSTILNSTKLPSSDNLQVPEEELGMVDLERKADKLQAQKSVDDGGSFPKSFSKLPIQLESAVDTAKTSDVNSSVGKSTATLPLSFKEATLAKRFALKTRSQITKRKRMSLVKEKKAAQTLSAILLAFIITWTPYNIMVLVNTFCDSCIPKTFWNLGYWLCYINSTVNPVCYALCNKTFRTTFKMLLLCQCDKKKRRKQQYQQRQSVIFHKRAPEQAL
Sequence of human M5 receptor (P08912 whole entry): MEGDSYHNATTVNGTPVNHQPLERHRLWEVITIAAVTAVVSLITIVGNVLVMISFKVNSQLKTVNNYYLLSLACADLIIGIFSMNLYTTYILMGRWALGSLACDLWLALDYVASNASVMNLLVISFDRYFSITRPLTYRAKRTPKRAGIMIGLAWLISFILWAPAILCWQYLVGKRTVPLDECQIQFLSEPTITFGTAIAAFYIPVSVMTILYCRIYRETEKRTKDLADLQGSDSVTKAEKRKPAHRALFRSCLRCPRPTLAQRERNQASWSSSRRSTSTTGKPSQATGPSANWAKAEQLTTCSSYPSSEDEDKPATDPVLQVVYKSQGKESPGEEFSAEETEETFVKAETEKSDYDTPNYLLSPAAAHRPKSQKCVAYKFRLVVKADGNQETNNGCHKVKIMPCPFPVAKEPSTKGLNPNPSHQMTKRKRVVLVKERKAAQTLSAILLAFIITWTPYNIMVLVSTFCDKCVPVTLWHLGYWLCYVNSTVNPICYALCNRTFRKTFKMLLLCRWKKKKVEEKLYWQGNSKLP
Sequence of human M2 receptor (P08172 whole entry): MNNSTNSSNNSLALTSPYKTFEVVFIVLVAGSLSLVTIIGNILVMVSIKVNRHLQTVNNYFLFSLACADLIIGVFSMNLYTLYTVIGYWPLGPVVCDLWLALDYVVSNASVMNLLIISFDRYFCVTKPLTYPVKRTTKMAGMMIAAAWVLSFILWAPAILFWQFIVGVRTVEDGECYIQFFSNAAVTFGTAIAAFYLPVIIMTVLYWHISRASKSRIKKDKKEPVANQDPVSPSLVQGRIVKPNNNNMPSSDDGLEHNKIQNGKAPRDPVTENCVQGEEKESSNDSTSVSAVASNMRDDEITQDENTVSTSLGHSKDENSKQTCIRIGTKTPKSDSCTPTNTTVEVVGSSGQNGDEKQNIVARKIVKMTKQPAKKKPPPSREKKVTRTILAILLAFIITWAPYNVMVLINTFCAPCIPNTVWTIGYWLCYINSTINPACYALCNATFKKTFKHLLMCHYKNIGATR
Sequence of human M1 receptor (P11229 whole entry): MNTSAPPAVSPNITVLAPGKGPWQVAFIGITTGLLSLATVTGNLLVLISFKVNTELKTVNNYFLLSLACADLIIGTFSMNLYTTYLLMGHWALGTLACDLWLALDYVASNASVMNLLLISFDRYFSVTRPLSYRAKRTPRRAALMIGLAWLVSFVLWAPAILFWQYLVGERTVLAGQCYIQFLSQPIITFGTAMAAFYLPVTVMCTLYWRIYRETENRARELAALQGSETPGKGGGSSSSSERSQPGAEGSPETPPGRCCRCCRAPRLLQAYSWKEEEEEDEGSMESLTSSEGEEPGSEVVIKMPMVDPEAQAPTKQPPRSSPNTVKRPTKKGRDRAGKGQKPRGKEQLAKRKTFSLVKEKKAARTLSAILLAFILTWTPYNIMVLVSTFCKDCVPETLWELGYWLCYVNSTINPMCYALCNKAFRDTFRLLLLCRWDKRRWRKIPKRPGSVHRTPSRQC
Sequence of human M4 receptor (P08173 whole entry): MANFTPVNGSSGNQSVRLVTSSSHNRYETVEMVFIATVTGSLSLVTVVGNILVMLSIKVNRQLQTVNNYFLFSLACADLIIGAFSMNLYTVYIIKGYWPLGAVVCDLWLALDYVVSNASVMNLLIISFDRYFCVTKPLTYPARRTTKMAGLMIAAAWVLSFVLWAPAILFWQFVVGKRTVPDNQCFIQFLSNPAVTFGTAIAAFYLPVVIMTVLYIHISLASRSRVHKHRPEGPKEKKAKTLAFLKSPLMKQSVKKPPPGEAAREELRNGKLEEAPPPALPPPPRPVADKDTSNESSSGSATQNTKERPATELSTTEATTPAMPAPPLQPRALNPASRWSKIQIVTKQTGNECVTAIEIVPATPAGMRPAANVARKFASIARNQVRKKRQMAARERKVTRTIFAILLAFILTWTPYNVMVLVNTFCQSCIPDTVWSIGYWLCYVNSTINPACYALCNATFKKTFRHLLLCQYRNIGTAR

On to `C[C@@H]1CN(c2ncc(C#N)cn2)C[C@H](C)N1C(=O)NCCC1CCN(Cc2ccc(O)cc2)CC1` [6-42, (2R,6S)-4-(5-cyanopyrimidin-2-yl)-N-(2-{1-[(4-hydroxyphenyl)-methyl]piperidin-4-yl}ethyl)-2,6-dimethylpiperazine-1-carboxamide], for which the Ki at human M2 receptor is 10 to 100 nM; at human M4 receptor, less than 10 nM; at human M3 receptor, 100 to 1000 nM; on human M1 receptor, more than 1000 nM; at human M5 receptor it was more than 1000 nM.
As to `C[C@@H]1CN(c2ncc(C#N)cn2)C[C@H](C)N1C(=O)NCCC1CCN(Cc2cccc(F)c2)CC1` [6-46, (2R,6S)-4-(5-cyanopyrimidin-2-yl)-N-(2-{1-[(3-fluorophenyl)-methyl]piperidin-4-yl}ethyl)-2,6-dimethylpiperazine-1-carboxamide], the Ki at human M2 receptor was less than 10 nM; on human M4 receptor, less than 10 nM; at human M3 receptor it was more than 1000 nM; on human M1 receptor, more than 1000 nM; at human M5 receptor, more than 1000 nM.
With `C[C@@H]1CN(c2ncc(C#N)cn2)C[C@H](C)N1C(=O)NCCC1CCN(Cc2ccc3[nH]ccc3c2)CC1` [6-47, (2R,6S)-4-(5-cyanopyrimidin-2-yl)-N-{2-[1-(1H-indol-5-ylmethyl)-piperidin-4-yl]ethyl}-2,6-dimethylpiperazine-1-carboxamide], the Ki was less than 10 nM on human M2 receptor; less than 10 nM on human M4 receptor; 100 to 1000 nM at human M3 receptor; 100 to 1000 nM at human M1 receptor; 100 to 1000 nM at human M5 receptor.
As for `C[C@@H]1CN(c2ncc(C#N)cn2)C[C@H](C)N1C(=O)NCCC1CCN(Cc2ccc(F)cc2)CC1` [6-48, (2R,6S)-4-(5-cyanopyrimidin-2-yl)-N-(2-{1-[(4-fluorophenyl)methyl]-piperidin-4-yl}ethyl)-2,6-dimethylpiperazine-1-carboxamide], the Ki on human M2 receptor is 10 to 100 nM; at human M4 receptor, less than 10 nM; on human M3 receptor, more than 1000 nM; at human M1 receptor, more than 1000 nM; on human M5 receptor, more than 1000 nM.
Take `C[C@@H]1CN(c2cnc(C(F)(F)F)nc2)C[C@H](C)N1C(=O)NCCC1CCN(Cc2ccc3[nH]ccc3c2)CC1` [6-50, (2R,6S)-N-{2-[1-(1H-indol-5-ylmethyl)piperidin-4-yl]ethyl}-2,6-dimethyl-4-[2-(trifluoromethyl)pyrimidin-5-yl]piperazine-1-carboxamide]: the inhibition constant Ki is 10 to 100 nM at human M2 receptor; less than 10 nM on human M4 receptor; 100 to 1000 nM on human M3 receptor; 100 to 1000 nM at human M1 receptor; more than 1000 nM on human M5 receptor.
With `C[C@@H]1CN(c2cc(F)c(F)c(F)c2)CCN1C(=O)NCCC1(O)CCN(Cc2ccccc2)CC1` [7-1, (2R)-N-[2-(1-benzyl-4-hydroxypiperidin-4-yl)ethyl]-2-methyl-4-(3,4,5-trifluorophenyl)piperazine-1-carboxamide], the Ki on human M2 receptor is more than 1000 nM; on human M4 receptor, less than 10 nM; on human M3 receptor, more than 1000 nM; at human M1 receptor it was more than 1000 nM; on human M5 receptor it was more than 1000 nM.
On to `C[C@@H]1CN(c2ccc(F)c(C(F)F)c2)CCN1C(=O)NCCC1CCN(Cc2ccccc2)CC1` [7-9, (2R)-N-[2-(1-benzylpiperidin-4-yl)ethyl]-4-[3-(difluoromethyl)-4-fluorophenyl]-2-methylpiperazine-1-carboxamide], for which the Ki was 100 to 1000 nM at human M2 receptor; less than 10 nM at human M4 receptor; more than 1000 nM on human M3 receptor; 100 to 1000 nM at human M1 receptor; more than 1000 nM on human M5 receptor.
On to `C[C@@H]1CN(c2ccc(OC(F)(F)F)c(C#N)c2)CCN1C(=O)NC[C@H](O)C1CCN(Cc2ccccc2)CC1` [7-10, (2R)-N-[(2R)-2-(1-benzylpiperidin-4-yl)-2-hydroxyethyl]-4-[3-cyano-4-(trifluoromethoxy)phenyl]-2-methylpiperazine-1-carboxamide], for which the Ki on human M2 receptor was 100 to 1000 nM; at human M4 receptor, less than 10 nM; on human M3 receptor it was more than 1000 nM; at human M1 receptor, more than 1000 nM; on human M5 receptor, more than 1000 nM.
Take `C[C@@H]1CN(c2ccc(F)c(C#N)c2)CCN1C(=O)NCCC1(O)CCN(Cc2ccccc2)CC1` [7-11, (2R)-N-[2-(1-benzyl-4-hydroxypiperidin-4-yl)ethyl]-4-(3-cyano-4-fluorophenyl)-2-methylpiperazine-1-carboxamide]: the Ki at human M2 receptor was more than 1000 nM; at human M4 receptor, less than 10 nM; at human M3 receptor, more than 1000 nM; on human M1 receptor, more than 1000 nM; on human M5 receptor it was more than 1000 nM.
Take `C[C@@H]1CN(c2ccc(F)c(C#N)c2)CCN1C(=O)NC[C@H](O)C1CCN(Cc2ccccc2)CC1` [7-12, (2R)-N-[(2R)-2-(1-benzylpiperidin-4-yl)-2-hydroxyethyl]-4-(3-cyano-4-fluorophenyl)-2-methylpiperazine-1-carboxamide]: the Ki on human M2 receptor is more than 1000 nM; on human M4 receptor, less than 10 nM; at human M3 receptor, more than 1000 nM; at human M1 receptor, more than 1000 nM; on human M5 receptor, more than 1000 nM.
As to `O=C(NCCC1CCN(Cc2ccccc2)CC1)N1CCC(c2ccc(C(F)(F)F)cc2)CC1` [8-1, N-[2-(1-benzylpiperidin-4-yl)ethyl]-4-[4-(trifluoromethyl)phenyl]piperidine-1-carboxamide], the Ki was 100 to 1000 nM at human M2 receptor; less than 10 nM on human M4 receptor; 100 to 1000 nM at human M3 receptor; 100 to 1000 nM on human M1 receptor; 100 to 1000 nM on human M5 receptor.
Turning to `N#Cc1cnc(N2CC3CCC(C2)N3C(=O)NCCC2CCN(Cc3ccccc3)CC2)nc1` [8-48, N-[2-(1-benzylpiperidin-4-yl)ethyl]-3-(5-cyanopyrimidin-2-yl)-3,8-diazabicyclo[3.2.1]octane-8-carboxamide], the Ki on human M2 receptor is less than 10 nM; on human M4 receptor it was less than 10 nM; on human M3 receptor it was 100 to 1000 nM; on human M1 receptor, 10 to 100 nM; at human M5 receptor, 100 to 1000 nM.
For the compound `O=C(NCCC1CCN(Cc2ccccc2)CC1)C1CCN(c2ccc(OC(F)(F)F)cc2)CC1` [9-1, N-[2-(1-benzylpiperidin-4-yl)ethyl]-1-[4-(trifluoromethoxy)phenyl]piperidine-4-carboxamide], the Ki is 100 to 1000 nM at human M2 receptor; less than 10 nM on human M4 receptor; more than 1000 nM on human M3 receptor; more than 1000 nM at human M1 receptor; more than 1000 nM on human M5 receptor.
Regarding `C[C@@H]1CN(c2cc(F)cc(C#N)c2)CCN1C(=O)NC[C@@H](O)C1CCN(Cc2ccccc2)CC1` [9-5, (2R)-N-[(2S)-2-(1-benzylpiperidin-4-yl)-2-hydroxyethyl]-4-(3-cyano-5-fluorophenyl)-2-methylpiperazine-1-carboxamide], the Ki on human M2 receptor is more than 1000 nM; on human M4 receptor it was less than 10 nM; on human M3 receptor, more than 1000 nM; on human M1 receptor it was more than 1000 nM; on human M5 receptor, more than 1000 nM.
Take `O=C(NCCC1CCN(Cc2ccccc2)CC1)c1ccc(-c2ccc(OC(F)(F)F)cc2)cc1F` [9-6, N-[2-(1-benzylpiperidin-4-yl)ethyl]-2-fluoro-4-[4-(trifluoromethoxy)phenyl]benzamide]: the Ki at human M2 receptor is 10 to 100 nM; on human M4 receptor, less than 10 nM; at human M3 receptor, 100 to 1000 nM; on human M1 receptor, 100 to 1000 nM; at human M5 receptor, 100 to 1000 nM.
On to `O=C(NCCC1CCN(Cc2ccccc2)CC1)c1ccc(-c2ccc(OC(F)(F)F)cc2)cc1` [9-7, N-[2-(1-benzylpiperidin-4-yl)ethyl]-4-[4-(trifluoromethoxy)phenyl]benzamide], for which the inhibitory constant (Ki) at human M2 receptor was 100 to 1000 nM; on human M4 receptor, less than 10 nM; at human M3 receptor, more than 1000 nM; on human M1 receptor, 100 to 1000 nM; at human M5 receptor, more than 1000 nM.
As for `O=C(NCC(O)C1CCN(Cc2ccccc2)CC1)C1CCN(c2ccc(OC(F)(F)F)cc2)CC1` (centres unmarked) [9-8, N-[2-(1-benzylpiperidin-4-yl)-2-hydroxyethyl]-1-[4-(trifluoromethoxy)phenyl]piperidine-4-carboxamide], the Ki was 100 to 1000 nM on human M2 receptor; less than 10 nM on human M4 receptor; more than 1000 nM on human M3 receptor; more than 1000 nM on human M1 receptor; more than 1000 nM on human M5 receptor.
On to `O=C(NCCC1(O)CCN(Cc2ccccc2)CC1)C1CCN(c2ccc(OC(F)(F)F)c(F)c2)CC1` [9-9, N-[2-(1-benzyl-4-hydroxypiperidin-4-yl)ethyl]-1-[3-fluoro-4-(trifluoromethoxy)phenyl]piperidine-4-carboxamide], for which the Ki at human M2 receptor is 100 to 1000 nM; at human M4 receptor, less than 10 nM; on human M3 receptor, more than 1000 nM; on human M1 receptor, 100 to 1000 nM; on human M5 receptor, more than 1000 nM.
On to `C[C@@H]1CN(c2ccc(OC(F)(F)F)c(C#N)c2)CCN1C(=O)NCC[C@H]1CCN(Cc2ccccc2)C1` [9-10, (2R)-N-{2-[(3S)-1-benzylpyrrolidin-3-yl]ethyl}-4-[3-cyano-4-(trifluoromethoxy)phenyl]-2-methylpiperazine-1-carboxamide], for which the Ki on human M2 receptor was 100 to 1000 nM; at human M4 receptor it was less than 10 nM; on human M3 receptor it was 100 to 1000 nM; at human M1 receptor, 100 to 1000 nM; at human M5 receptor it was more than 1000 nM.

Usually Ki stands for a dissociation constant, usually derived from enzyme kinetics or from competition with a known ligand.
